# Test results published in patent US20220087996A1, “Histone acetylase p300 inhibitor and use thereof” (HINOVA PHARMACEUTICALS INC., priority 2018, published 2022).
# Test system: CWR22RV1 cells
# Test: Inhibition of proliferation of CWR22RV1 cells (CCK-8)
# Assay type: cell-based, human
# Conditions: 6 days culture, read-out: IC50 against CWR22RV1 cells
# Method: 1) CWR22RV1 cells were subcultured in cell culture medium, and the cells in good growth condition were seeded in a 96-well plate, 80 μL for each well, and the cell number in each well was 1500. The plate was incubated overnight in a 37° C., 5% CO2 cell incubator. 2) The drug was prepared as 30 mM stock solution with dimethyl sulfoxide (DMSO). Prior to use, the stock solution was diluted 3 times with DMSO, and then further diluted as 3-fold gradient to obtain 9 concentration gradients. Then, each concentration of compound was diluted 200 times with the culture solution (ensuring that the DMSO concentration in the culture system was 0.1%), and two replicate wells were set for each concentration. 20 μL of diluted compound solution was added to the cell culture well (with final concentrations of 10 μM, 3.3 μM. 1.1 μM . . . ), and the plate was gently shaken to mix. In addition, 3 negative control wells containing only cells and 3 blank control wells containing only culture medium were included (6 wells were each added 20 μL DMSO diluted 200 times with culture medium). 2. Result detection: (1) After culturing for 6 days, 10 μL CCK-8 was added to each well, and the plate was continually cultured in a 37° C., 5% CO2 cell incubator for 2.5 h. (2) The absorbance (OD value) was detected at 450 nm using a multifunctional microplate reader. (3) The data were analyzed by Dose-response-inhibition equation in the software GraphPad Prism6, and the IC50 value was obtained.
row,Structure (SMILES),IC50
1,"CNC(=O)Nc1ccc2c(c1)CC[C@@]21OC(=O)N(CC(=O)N2CCCC2c2ccccc2C)C1=O (stereo partly drawn) [Example 11, 1-((1R)-2′,4′-dioxo-3′-(2-oxo-2-(2-(o-tolyl)pyrrolidin-1-yl)ethyl)-2,3-dihydrospiro[indene-1,5′-oxazolidine]-5-yl)-3-methylurea]",500 to 2000 nM

# Same assay, conditions: Homo sapiens, CWR22Rv1, 144 h, 6 days culture, read-out: IC50 against CWR22RV1 cells
row,Structure (SMILES),IC50
1,"CNC(=O)Nc1ccc2c(c1)CC[C@@]21OC(=O)N(CC(=O)N2C(C)CCC2c2ccc(Cl)cc2C)C1=O (stereo partly drawn) [Example 351, 1-((1R)-3′-(2-(2-(4-chloro-2-methylphenyl)-5-methylpyrrolidin-1-yl)-2-oxoethyl)-2′,4′-dioxo-2,3-dihydrospiro[indene-1,5′-oxazolidine]-5-yl)-3-methylurea]",≤ 500 nM
2,"CNC(=O)Nc1ccc2c(c1)CC[C@]21OC(=O)N(CC(=O)N2CCC[C@H]2c2ccccc2)C1=O [Example 310, 1-((S)-2′,4′-dioxo-3′-(2-oxo-2-((S)-2-phenylpyrrolidin-1-yl)ethyl)-2,3-dihydrospiro[indene-1,5′-oxazolidine]-5-yl)-3-methylurea]",> 2000 nM
3,"CNC(=O)Nc1ccc2c(c1)CC[C@@]21OC(=O)N(CC(=O)N2CCC[C@H]2C(=O)N2CC3CC2CO3)C1=O (stereo partly drawn) [Example 328, 1-(3′-(2-((2S)-2-(2-oxa-5-azabicyclo[2.2.1]heptan-5-carbonyl)pyrrolidin-1-yl)-2-oxoethyl)-2′,4′-dioxo-2,3-dihydrospiro[indene-1,5′-oxazolidine]-5-yl)-3-methylurea]",> 2000 nM
4,"CNC(=O)Nc1cc(F)c2c(c1)CC[C@@]21OC(=O)N(CC(=O)N2[C@@H](C)CC[C@H]2c2ccc(F)c(F)c2)C1=O [Example 387, 1-((R)-3′-(2-((2S,5S)-2-(3,4-difluorophenyl)-5-methylpyrrolidin-1-yl)-2-oxoethyl)-7-fluoro-2′,4′-dioxo-2,3-dihydrospiro[indene-1,5′-oxazolidine]-5-yl)-3-methylurea]",500 to 2000 nM
5,C[C@H]1CC[C@@H](c2ccc(F)cc2)N1C(=O)CN1C(=O)O[C@@]2(CCc3cc(N)ccc32)C1=O [compound 372],> 2000 nM
6,"CNC(=O)Nc1ccc2c(c1)CC[C@@]21OC(=O)N(CC(=O)N2CCC[C@H]2c2cc(C)n[nH]2)C1=O [Example 333, 1-methyl-3-((R)-3′-(2-((S)-2-(3-methyl-1H-pyrazol-5-yl)pyrrolidin-1-yl)-2-oxoethyl)-2′,4′-dioxo-2,3-dihydrospiro[indene-1,5′-oxazolidine]-5-yl)urea]",> 2000 nM
7,"CNC(=O)Nc1ccc2c(c1)CC[C@@]21OC(=O)N(CC(=O)N2CCCC2c2ccc(F)cc2C)C1=O (stereo partly drawn) [Example 347, 1-((1R)-3′-(2-(2-(4-fluoro-2-methylphenyl)pyrrolidin-1-yl)-2-oxoethyl)-2′,4′-dioxo-2,3-dihydrospiro[indene-1,5′-oxazolidine]-5-yl)-3-methylurea]",500 to 2000 nM
8,"CNC(=O)Nc1ccc2c(c1)CC[C@@]21OC(=O)N(CC(=O)N2C(c3ccc(F)cc3)CC[C@H]2CO)C1=O (stereo partly drawn) [Example 363, 1-((1R)-3′-(2-((5S)-2-(4-fluorophenyl)-5-(hydroxymethyl)pyrrolidin-1-yl)-2-oxoethyl)-2′,4′-dioxo-2,3-dihydrospiro[indene-1,5′-oxazolidine]-5-yl)-3-methylurea]",> 2000 nM
9,CNC(=O)Nc1cc2c(cc1F)[C@]1(CC2)OC(=O)N(CC(=O)N2[C@@H](C)CC[C@H]2c2cc(F)c(F)c(F)c2)C1=O [Example 392],500 to 2000 nM
10,CNC(=O)Nc1ccc2c(c1)CC[C@@]21OC(=O)N(CC(=O)N2C(C)(C)CCCC2(C)C)C1=O [Example 368],> 2000 nM
11,"CNC(=O)Nc1ccc2c(c1)CC[C@@]21OC(=O)N(CC(=O)N2CCCC2c2cccc(OC)c2)C1=O (stereo partly drawn) [Example 335, 1-((1R)-3′-(2-(2-(3-methoxyphenyl)pyrrolidin-1-yl)-2-oxoethyl)-2′,4′-dioxo-2,3-dihydrospiro[indene-1,5′-oxazolidine]-5-yl)-3-methylurea]",> 2000 nM
12,"CNC(=O)Nc1ccc2c(c1)CC[C@@]21OC(=O)N(CC(=O)N2C(C)CCC2(c2ccc(OC)cc2)c2ccc(OC)cc2)C1=O (stereo partly drawn) [Example 349, 1-((1R)-3′-(2-(2,2-bis(4-methoxyphenyl)-5-methylpyrrolidin-1-yl)-2-oxoethyl)-2′,4′-dioxo-2,3-dihydrospiro[indene-1,5′-oxazolidine]-5-yl)-3-methylurea]",> 2000 nM
13,"CNC(=O)Nc1ccc2c(c1)CCC21OC(=O)N(CC(=O)N2CCCCC23CCN(C(C)=O)CC3)C1=O (stereo not drawn) [Example 355, 1-(3′-(2-(9-acetyl-1,9--1-yl)-2-oxoethyl)-2′,4′-dioxo-2,3-dihydrospiro[indene-1,5′-oxazolidine]-5-yl)-3-methylurea]",> 2000 nM
14,"CNC(=O)Nc1ccc2c(c1F)CC[C@@]21OC(=O)N(CC(=O)N2[C@@H](C)CC[C@H]2c2ccc(F)c(F)c2)C1=O [Example 383, 1-((R)-3′-(2-((2S,5S)-2-(3,4-difluorophenyl)-5-methylpyrrolidin-1-yl)-2-oxoethyl)-4-fluoro-2′,4′-dioxo-2,3-dihydrospiro[indene-1,5′-oxazolidine]-5-yl)-3-methylurea]",> 2000 nM
15,"CNC(=O)Nc1ccc2c(c1)CC[C@@]21OC(=O)N(CC(=O)N2C(C)CCC2c2ccc(C(F)(F)F)cc2C)C1=O (stereo partly drawn) [Example 352, 1-methyl-3-((1R)-3′-(2-(2-methyl-5-(2-methyl-4-(trifluoromethyl)phenyl)pyrrolidin-1-yl)-2-oxoethyl)-2′,4′-dioxo-2,3-dihydrospiro[indene-1,5′-oxazolidine]-5-yl)urea]",> 2000 nM
16,CNC(=O)Nc1ccc2c(c1)CC[C@@]21OC(=O)N(CC(=O)N2CCCC2c2cccc(C)c2)C1=O (stereo partly drawn) [Example 318],> 2000 nM
17,"CNC(=O)Nc1ccc2c(c1)CC[C@@]21OC(=O)N(CC(=O)N2CCC[C@@H]2c2ccccc2)C1=O [Example 306, 1-((R)-2′,4′-dioxo-3′-(2-oxo-2-((R)-2-phenylpyrrolidin-1-yl)ethyl)-2,3-dihydrospiro[indene-1,5′-oxazolidine]-5-yl)-3-methylurea]",> 2000 nM
18,"CNC(=O)Nc1ccc2c(c1)CC[C@@]21OC(=O)N(CC(=O)N2C(C)CCC2c2ccc(F)cc2Br)C1=O (stereo partly drawn) [Example 354, 1-((1R)-3′-(2-(2-(2-bromo-4-fluorophenyl)-5-methylpyrrolidin-1-yl)-2-oxoethyl)-2′,4′-dioxo-2,3-dihydrospiro[indene-1,5′-oxazolidine]-5-yl)-3-methylurea]",500 to 2000 nM
19,CNC(=O)Nc1ccc2c(c1)CC[C@]21OC(=O)N(CC(=O)N2CCCC[C@@H]2c2ccccc2)C1=O [Example 1],> 2000 nM
20,CNC(=O)Nc1ccc2c(c1)CC[C@@]21OC(=O)N(CC(=O)N2CCCC2c2cccc3c2OCO3)C1=O (stereo partly drawn) [Example 112],> 2000 nM
21,"CNC(=O)Nc1ccc2c(c1)CC[C@@]21OC(=O)N(CC(=O)N2[C@H](CN3CCC4(CC3)CC4(F)F)CC[C@@H]2C)C1=O [Example 379, 1-((R)-3′-(2-((2S,5S)-2-((1,1-difluoro-6-aza-spiro[2.5]octan-6-yl)methyl)-5-methylpyrrolidin-1-yl)-2-oxoethyl)-2′,4′-dioxo-2,3-dihydrospiro[indene-1,5′-oxazolidine]-5-yl)-3-methylurea]",> 2000 nM
22,"CNC(=O)Nc1ccc2c(c1)CC[C@@]21OC(=O)N(CC(=O)N2C(c3ccc(F)cc3)CC[C@H]2C)C1=O (stereo partly drawn) [Example 18, 1-((R)-3′-(2-((5R)-2-(4-fluorophenyl)-5-methylpyrrolidin-1-yl)-2-oxoethyl)-2′,4′-dioxo-2,3-dihydrospiro[indene-1,5′-oxazolidine]-5-yl)-3-methylurea]",≤ 500 nM
23,"CNC(=O)Nc1ccc2c(c1)C1(CC1)CC21OC(=O)N(CC(=O)N2C(C)CCC2c2ccc(F)cc2)C1=O (stereo not drawn) [Example 97, 1-(3′-(2-(2-(4-fluorophenyl)-5-methylpyrrolidin-1-yl)-2-oxoethyl)-2′,4′-dioxo-2,3-dihydrospiro[cyclopropane-1,1′-indene-1,5′-oxazolidine]-5-yl)-3-methylurea]",> 2000 nM
24,"CNC(=O)Nc1ccc2c(c1)CC[C@@]21OC(=O)N(CC(=O)N2C(C)CCC2c2ccc(F)cc2C)C1=O (stereo partly drawn) [Example 353, 1-((1R)-3′-(2-(2-(4-fluoro-2-methylphenyl)-5-methylpyrrolidin-1-yl)-2-oxoethyl)-2′,4′-dioxo-2,3-dihydrospiro[indene-1,5′-oxazolidine]-5-yl)-3-methylurea]",≤ 500 nM
25,"CNC(=O)Nc1cc(F)c2c(c1)CC[C@]21OC(=O)N(CC(=O)N2[C@@H](C)CC[C@H]2c2ccc(F)c(F)c2)C1=O [Example 385, 1-((S)-3′-(2-((2S,5S)-2-(3,4-difluorophenyl)-5-methylpyrrolidin-1-yl)-2-oxoethyl)-7-fluoro-2′,4′-dioxo-2,3-dihydrospiro[indene-1,5′-oxazolidine]-5-yl)-3-methylurea]",> 2000 nM
26,"CNC(=O)Nc1ccc2c(c1)CC[C@@]21OC(=O)N(CC(=O)N2C(c3ccc(F)c(F)c3)CC[C@@H]2C)C1=O (stereo partly drawn) [Example 374, 1-((R)-3′-(2-((5S)-2-(3,4-difluorophenyl)-5-methylpyrrolidin-1-yl)-2-oxoethyl)-2′,4′-dioxo-2,3-dihydrospiro[indene-1,5′-oxazolidine]-5-yl)-3-methylurea]",> 2000 nM

# Same assay, conditions: Homo sapiens, CWR22Rv1, 144 h, 6 days culture, read-out: IC50 against CWR22RV1 cells (text)
row,Structure (SMILES),IC50
1,"CNC(=O)Nc1ccc2c(c1)CC[C@@]21OC(=O)N(CC(=O)N2C(C)CCC2c2ccc(Cl)cc2C)C1=O (stereo partly drawn) [Example 351, 1-((1R)-3′-(2-(2-(4-chloro-2-methylphenyl)-5-methylpyrrolidin-1-yl)-2-oxoethyl)-2′,4′-dioxo-2,3-dihydrospiro[indene-1,5′-oxazolidine]-5-yl)-3-methylurea]",≤ 500 nM
2,"CNC(=O)Nc1ccc2c(c1)CC[C@@]21OC(=O)N(CC(=O)N2C(c3ccc(F)cc3)CC[C@H]2C)C1=O (stereo partly drawn) [Example 18, 1-((R)-3′-(2-((5R)-2-(4-fluorophenyl)-5-methylpyrrolidin-1-yl)-2-oxoethyl)-2′,4′-dioxo-2,3-dihydrospiro[indene-1,5′-oxazolidine]-5-yl)-3-methylurea]",≤ 500 nM
3,"CNC(=O)Nc1ccc2c(c1)CC[C@@]21OC(=O)N(CC(=O)N2C(C)CCC2c2ccc(F)cc2C)C1=O (stereo partly drawn) [Example 353, 1-((1R)-3′-(2-(2-(4-fluoro-2-methylphenyl)-5-methylpyrrolidin-1-yl)-2-oxoethyl)-2′,4′-dioxo-2,3-dihydrospiro[indene-1,5′-oxazolidine]-5-yl)-3-methylurea]",≤ 500 nM
